Measured values reported in US20090306074A1, “THIAZOLIDINEDIONE DERIVATIVES AS P13 KINASE INHIBITORS” (priority 2006, published 2009).
Like-named read-outs stand apart in the source and are kept apart here.

How the values were obtained:
[1] = target: T1, PI3Kα (Homo sapiens, UniProt P42336); experiment: PI3K Alpha Leadseeker SPA Assay; type: biochemical; conditions: His-p110/p85 PI3K alpha, P33-ATP, PEI-PS Leadseeker beads; read-out: IC50 against PI3Kα
T1 construct: His
Protocol: PI3K Alpha Leadseeker SPA Assay
Compounds of the present invention were tested according to the following assays and found as inhibitors of PI3 kinases, particularly PI3Kα. The activities (IC50) range from 1 nM to 500 μM against PI3Kα.
SPA imaging beads are microspheres containing scintillant which emit light in the red region of the visible spectrum. As a result, these beads are ideally suited to use with a CCD imager such as the Viewlux. The Leadseeker beads used in this system are polystyrene beads that have been coupled with polyethyleneimine. When added to the assay mixture, the beads absorb both the substrate (PIP2) and product (PIP3). Adsorbed P^33-PIP3 will cause an increase in signal, measured as ADUs (analog to digital units). This protocol details the use of the PEI-PS Leadseeker beads for assays using His-p110/p85 PI3K alpha.
Solid compounds are typically plated with 0.1 μl of 100% DMSO in all wells (except column 6 and 18) of a 384-well, flat bottom, low volume plate (Greiner 784075). The compounds are serially diluted (3-fold in 100% DMSO) across the plate from column 1 to column 12 and column 13 to column 24 and leave column 6 and 18 containing only DMSO to yield 11 concentrations for each test compound. […] The signal is determined using a Viewlux detector and is then imported into curve fitting software (Activity Base) for construction of concentration response curves. […]

[2] = target: CK2 protein kinase (Homo sapiens, UniProt P68400); conditions: cited from earlier work
[3] = system: Class I PI3-kinases; conditions: cited from earlier work

T1 sequence (P42336 whole entry): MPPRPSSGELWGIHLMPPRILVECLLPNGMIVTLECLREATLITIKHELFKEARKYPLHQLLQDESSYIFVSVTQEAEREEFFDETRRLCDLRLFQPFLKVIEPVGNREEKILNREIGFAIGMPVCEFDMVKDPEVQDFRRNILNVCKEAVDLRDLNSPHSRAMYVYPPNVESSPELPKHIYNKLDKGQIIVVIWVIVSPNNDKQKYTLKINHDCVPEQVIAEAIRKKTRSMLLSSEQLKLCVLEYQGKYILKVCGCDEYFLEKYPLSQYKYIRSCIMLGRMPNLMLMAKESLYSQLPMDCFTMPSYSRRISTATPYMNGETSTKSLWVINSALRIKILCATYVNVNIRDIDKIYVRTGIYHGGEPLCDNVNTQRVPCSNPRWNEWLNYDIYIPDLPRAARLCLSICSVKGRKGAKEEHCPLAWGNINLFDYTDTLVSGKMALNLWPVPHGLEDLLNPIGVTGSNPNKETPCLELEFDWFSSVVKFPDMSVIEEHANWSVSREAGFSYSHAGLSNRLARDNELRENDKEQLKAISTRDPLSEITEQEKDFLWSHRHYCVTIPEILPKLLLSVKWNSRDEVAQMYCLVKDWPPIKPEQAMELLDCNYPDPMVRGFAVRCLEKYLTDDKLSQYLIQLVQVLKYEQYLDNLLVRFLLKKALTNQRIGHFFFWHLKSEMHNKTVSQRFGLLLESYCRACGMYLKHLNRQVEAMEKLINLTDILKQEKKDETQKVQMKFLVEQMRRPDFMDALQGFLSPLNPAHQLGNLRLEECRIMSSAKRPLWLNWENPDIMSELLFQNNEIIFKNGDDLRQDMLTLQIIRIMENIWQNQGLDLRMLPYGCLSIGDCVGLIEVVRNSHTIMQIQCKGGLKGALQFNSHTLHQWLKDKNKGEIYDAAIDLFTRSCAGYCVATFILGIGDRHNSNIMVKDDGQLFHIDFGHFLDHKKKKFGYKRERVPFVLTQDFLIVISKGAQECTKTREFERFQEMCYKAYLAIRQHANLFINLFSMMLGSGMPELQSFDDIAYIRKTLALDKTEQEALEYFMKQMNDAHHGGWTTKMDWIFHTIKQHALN
T1 sequence (P27986 whole entry partner): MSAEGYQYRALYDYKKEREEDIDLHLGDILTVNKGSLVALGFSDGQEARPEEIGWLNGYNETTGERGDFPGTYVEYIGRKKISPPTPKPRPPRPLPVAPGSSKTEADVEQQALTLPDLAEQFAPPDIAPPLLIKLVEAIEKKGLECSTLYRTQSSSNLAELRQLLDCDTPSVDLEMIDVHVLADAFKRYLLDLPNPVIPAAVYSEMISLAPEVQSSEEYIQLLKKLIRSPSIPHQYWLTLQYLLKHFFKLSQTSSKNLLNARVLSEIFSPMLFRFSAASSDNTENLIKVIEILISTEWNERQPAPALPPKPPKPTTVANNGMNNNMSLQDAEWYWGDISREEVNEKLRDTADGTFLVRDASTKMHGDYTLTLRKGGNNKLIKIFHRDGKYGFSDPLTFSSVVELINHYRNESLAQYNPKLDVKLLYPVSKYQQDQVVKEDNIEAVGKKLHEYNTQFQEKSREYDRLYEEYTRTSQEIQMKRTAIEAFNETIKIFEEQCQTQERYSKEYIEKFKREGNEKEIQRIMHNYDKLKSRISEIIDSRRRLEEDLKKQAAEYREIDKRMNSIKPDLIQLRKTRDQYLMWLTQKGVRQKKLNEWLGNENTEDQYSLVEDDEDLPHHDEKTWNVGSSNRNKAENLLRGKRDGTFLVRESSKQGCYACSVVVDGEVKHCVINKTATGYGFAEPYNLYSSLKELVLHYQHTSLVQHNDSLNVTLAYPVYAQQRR
Sequence of CK2 protein kinase (P68400 whole entry): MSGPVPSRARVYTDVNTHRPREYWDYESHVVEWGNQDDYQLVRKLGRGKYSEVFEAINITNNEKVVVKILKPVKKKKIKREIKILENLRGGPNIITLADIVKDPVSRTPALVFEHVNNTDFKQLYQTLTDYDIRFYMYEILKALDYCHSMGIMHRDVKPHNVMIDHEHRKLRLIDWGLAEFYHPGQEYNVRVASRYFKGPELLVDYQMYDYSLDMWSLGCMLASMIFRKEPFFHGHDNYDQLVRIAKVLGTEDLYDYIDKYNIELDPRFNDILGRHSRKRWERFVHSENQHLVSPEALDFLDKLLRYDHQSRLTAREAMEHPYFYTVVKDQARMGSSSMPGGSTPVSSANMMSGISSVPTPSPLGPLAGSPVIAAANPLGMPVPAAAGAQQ

O=C1NC(=O)/C(=C/c2ccc3nccc(-c4ccncc4)c3c2)S1 [Example 1, (5Z)-5-{[4-(4-pyridinyl)-6-quinolinyl]methylidene}-1,3-thiazolidine-2,4-dione]
IC50 [1]: 1 nM

O=c1cc(N2CCOCC2)oc2c(-c3ccccc3)cccc12 [LY294002]
IC50 [2]: 5000 to 10000 nM | IC50 ([3]; read-out: IC50 values against each of these PI3-kinases): 15000 to 20000 nM

COC[C@H]1OC(=O)c2coc3c2[C@@]1(C)C1=C(C3=O)[C@@H]2CCC(=O)[C@@]2(C)C[C@H]1OC(C)=O [wortmannin]
IC50 ([3]; read-out: IC50 values against each of the various Class I PI3-kinases): 1 to 10 nM
